Experimental data published in ChEMBL document CHEMBL1629692, “Susceptibility of gram-negative pathogens isolated from patients with complicated intra-abdominal infections in the United States, 2007-2008: results of the Study for Monitoring Antimicrobial Resistance Trends (SMART)” (2010).

Legend:
Format in all cases: functional
[1] = test system: Escherichia coli; test: Antimicrobial activity against extended-spectrum beta-lactamase-positive Escherichia coli obtained from patient with complicated intra-abdominal infection assessed as percent susceptible isolates by agar dilution method in presence of beta-lactamase inhibitor Sulbactam
[2] = test system: Escherichia coli; test: Antimicrobial activity against Escherichia coli obtained from patient with complicated intra-abdominal infection assessed as percent susceptible isolates by agar dilution method in presence of beta-lactamase inhibitor Sulbactam
[3] = test system: Stenotrophomonas maltophilia; test: Antimicrobial activity against Stenotrophomonas maltophilia assessed as percent susceptible isolates by agar dilution method in presence of beta-lactamase inhibitor Sulbactam
[4] = test system: Klebsiella pneumoniae; test: Antimicrobial activity against Klebsiella pneumoniae assessed as percent susceptible isolates by agar dilution method in presence of beta-lactamase inhibitor Sulbactam
[5] = test system: Serratia marcescens; test: Antimicrobial activity against Serratia marcescens assessed as percent susceptible isolates by agar dilution method in presence of beta-lactamase inhibitor Sulbactam
[6] = test system: Escherichia coli; test: Antimicrobial activity against extended-Spectrum beta-lactamase-negative Escherichia coli obtained from patient with complicated intra-abdominal infection assessed as percent susceptible isolates by agar dilution method in presence of beta-lactamase inhibitor Sulbactam
[7] = test system: Klebsiella aerogenes; test: Antimicrobial activity against Enterobacter aerogenes obtained from patient with complicated intra-abdominal infection assessed as percent susceptible isolates by agar dilution method in presence of beta-lactamase inhibitor Sulbactam
[8] = test system: Klebsiella oxytoca; test: Antimicrobial activity against extended-spectrum beta-lactamase-positive Klebsiella oxytoca assessed as percent susceptible isolates by agar dilution method in presence of beta-lactamase inhibitor Sulbactam
[9] = test system: Klebsiella pneumoniae; test: Antimicrobial activity against extended-spectrum beta-lactamase-negative Klebsiella pneumoniae assessed as percent susceptible isolates by agar dilution method in presence of beta-lactamase inhibitor Sulbactam
[10] = test system: Klebsiella pneumoniae; test: Antimicrobial activity against extended-spectrum beta-lactamase-positive Klebsiella pneumoniae assessed as percent susceptible isolates by agar dilution method in presence of beta-lactamase inhibitor Sulbactam
[11] = test system: Citrobacter freundii; test: Antimicrobial activity against Citrobacter freundii obtained from patient with complicated intra-abdominal infection assessed as percent susceptible isolates by agar dilution method in presence of beta-lactamase inhibitor Sulbactam
[12] = test system: Acinetobacter sp.; test: Antimicrobial activity against Acinetobacter sp. assessed as percent susceptible isolates by agar dilution method in presence of beta-lactamase inhibitor Sulbactam
[13] = test system: Pasteurella sp.; test: Antimicrobial activity against Pasteurella sp. assessed as percent susceptible isolates by agar dilution method in presence of beta-lactamase inhibitor Sulbactam
[14] = test system: Pseudomonas fluorescens; test: Antimicrobial activity against Pseudomonas fluorescens assessed as percent susceptible isolates by agar dilution method in presence of beta-lactamase inhibitor Sulbactam
[15] = test system: Proteus mirabilis; test: Antimicrobial activity against extended-spectrum beta-lactamase-positive Proteus mirabilis assessed as percent susceptible isolates by agar dilution method in presence of beta-lactamase inhibitor Sulbactam
[16] = test system: Enterobacter cloacae; test: Antimicrobial activity against Enterobacter cloacae obtained from patient with complicated intra-abdominal infection assessed as percent susceptible isolates by agar dilution method in presence of beta-lactamase inhibitor Sulbactam

CC1(C)S[C@@H]2[C@H](NC(=O)[C@H](N)c3ccccc3)C(=O)N2[C@H]1C(=O)O [AMPICILLIN]
Activity [1]: 24%
Activity [2]: 62%
Activity [3]: 46%
Activity [4]: 69%
Activity [5]: 13%
Activity [6]: 64%
Activity [7]: 21%
Activity [8]: 57%
Activity [9]: 83%
Activity [10]: 3%
Activity [11]: 61%
Activity [12]: 46%
Activity [13]: 46%
Activity [14]: 46%
Activity [15]: 97%
Activity [16]: 17%
